From ChEMBL document CHEMBL1201862, “PubChem BioAssay data set” (2004)
Counter-ions that a name gives are not always drawn. The source made the active and inactive calls.

Columns and labels:
[1] = biological target: T1, Nuclear receptor subfamily 0 group B member 1 (Homo sapiens, UniProt P51843); test: Luminescence-based cell-based high throughput dose response assay for inhibitors of the orphan nuclear receptor subfamily 0, group B, member 1 (DAX1; NR0B1). [Related pubchem assays (depositor defined):AID504766, AID504790]; assay type: functional
T1 sequence (P51843 whole entry): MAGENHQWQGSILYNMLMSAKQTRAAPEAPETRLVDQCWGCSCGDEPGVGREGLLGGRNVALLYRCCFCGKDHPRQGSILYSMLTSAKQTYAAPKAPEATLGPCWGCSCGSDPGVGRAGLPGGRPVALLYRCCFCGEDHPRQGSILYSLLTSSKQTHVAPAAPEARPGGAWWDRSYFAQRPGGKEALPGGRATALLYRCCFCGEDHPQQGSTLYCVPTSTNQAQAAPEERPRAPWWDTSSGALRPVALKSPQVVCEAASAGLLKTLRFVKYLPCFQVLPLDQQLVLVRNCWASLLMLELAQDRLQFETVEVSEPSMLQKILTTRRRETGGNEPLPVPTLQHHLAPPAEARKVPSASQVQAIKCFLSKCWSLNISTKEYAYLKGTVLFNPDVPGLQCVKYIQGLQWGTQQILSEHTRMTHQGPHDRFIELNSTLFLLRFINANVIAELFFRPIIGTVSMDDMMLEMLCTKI

HEK293 = test: cells; assay type: functional, cell-based; conditions: Homo sapiens
[2] = biological target: Dual specificity protein kinase CLK1 (Homo sapiens, UniProt P49759); test: CLK1 kinase inhibitors, off-target check, dose response, selectivity assay for Dyrk1A inhibitor project, biochemical, cherry-picked samples (AID 588811)
Chain of Dual specificity protein kinase CLK1 (P49759 whole entry): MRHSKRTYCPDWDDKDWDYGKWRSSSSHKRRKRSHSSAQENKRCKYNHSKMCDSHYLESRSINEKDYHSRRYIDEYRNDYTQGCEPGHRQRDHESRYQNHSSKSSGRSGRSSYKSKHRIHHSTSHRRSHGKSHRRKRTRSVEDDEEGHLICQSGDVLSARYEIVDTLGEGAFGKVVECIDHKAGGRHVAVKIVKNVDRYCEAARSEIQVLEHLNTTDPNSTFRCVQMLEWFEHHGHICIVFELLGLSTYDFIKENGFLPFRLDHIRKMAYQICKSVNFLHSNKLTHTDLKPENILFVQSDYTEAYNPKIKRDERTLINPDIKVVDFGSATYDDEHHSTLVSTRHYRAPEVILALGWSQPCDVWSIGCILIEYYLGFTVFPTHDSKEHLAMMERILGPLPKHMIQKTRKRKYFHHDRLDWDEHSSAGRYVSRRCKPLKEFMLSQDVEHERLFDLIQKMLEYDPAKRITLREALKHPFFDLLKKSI

[3] = biological target: Voltage-gated inwardly rectifying potassium channel KCNH2 (Homo sapiens, UniProt Q12809); conditions: Potency;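 further: confirmatory quantitative high-throughput screen measuring inhibition of hERG channel activity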
Chain of Voltage-gated inwardly rectifying potassium channel KCNH2 (Q12809 whole entry): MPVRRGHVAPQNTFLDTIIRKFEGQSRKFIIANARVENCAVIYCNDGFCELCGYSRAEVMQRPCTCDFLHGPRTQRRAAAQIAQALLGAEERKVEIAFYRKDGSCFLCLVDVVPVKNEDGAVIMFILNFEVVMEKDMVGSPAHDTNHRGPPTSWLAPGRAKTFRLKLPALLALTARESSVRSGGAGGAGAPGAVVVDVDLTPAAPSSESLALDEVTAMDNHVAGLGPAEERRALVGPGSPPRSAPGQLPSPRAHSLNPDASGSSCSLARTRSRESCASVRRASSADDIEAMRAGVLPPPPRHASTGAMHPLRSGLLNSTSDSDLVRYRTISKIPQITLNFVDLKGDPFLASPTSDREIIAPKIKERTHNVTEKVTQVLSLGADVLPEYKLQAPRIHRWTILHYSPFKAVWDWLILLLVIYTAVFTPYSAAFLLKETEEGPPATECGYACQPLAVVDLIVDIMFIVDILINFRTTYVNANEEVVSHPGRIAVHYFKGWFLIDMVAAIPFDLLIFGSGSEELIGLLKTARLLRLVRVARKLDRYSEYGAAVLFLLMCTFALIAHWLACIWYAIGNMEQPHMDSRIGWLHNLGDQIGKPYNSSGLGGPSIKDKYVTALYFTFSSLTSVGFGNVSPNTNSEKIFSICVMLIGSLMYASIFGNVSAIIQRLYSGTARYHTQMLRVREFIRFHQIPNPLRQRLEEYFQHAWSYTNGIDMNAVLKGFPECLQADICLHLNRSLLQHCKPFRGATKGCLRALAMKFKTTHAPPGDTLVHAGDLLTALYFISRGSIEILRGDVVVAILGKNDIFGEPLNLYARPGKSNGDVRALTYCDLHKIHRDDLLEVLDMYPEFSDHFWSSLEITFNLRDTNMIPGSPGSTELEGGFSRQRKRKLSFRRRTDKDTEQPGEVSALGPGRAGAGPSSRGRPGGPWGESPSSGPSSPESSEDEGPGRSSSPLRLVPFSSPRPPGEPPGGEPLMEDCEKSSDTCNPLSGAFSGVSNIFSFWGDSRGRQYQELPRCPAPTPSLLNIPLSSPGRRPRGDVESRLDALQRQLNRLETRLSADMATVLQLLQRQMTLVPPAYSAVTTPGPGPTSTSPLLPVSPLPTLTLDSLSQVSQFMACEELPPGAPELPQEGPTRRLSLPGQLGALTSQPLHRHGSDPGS

[4] = microbe, parasite or virus in culture; assay type: functional; conditions: Mycobacterium tuberculosis
Keap1/Nrf2 = Keap1/Nrf2 (Homo sapiens, UniProt Q14145); test: Keap1-Nrf2 protein-protein interaction inhibitors, dose response, biochemical, fluorescence polarization, cherry-picked samples (AID 588683)
Caspase-7 = Caspase-7 (Homo sapiens, UniProt P55210); test: human caspase-7 inhibitors, dose response, selectivity assay for caspase-6 inhibitor project, biochemical, DEVD-R110 fluorescence, cherry-pick (AID 743295)
Chain of Caspase-7 (P55210 24-198 limits assumed): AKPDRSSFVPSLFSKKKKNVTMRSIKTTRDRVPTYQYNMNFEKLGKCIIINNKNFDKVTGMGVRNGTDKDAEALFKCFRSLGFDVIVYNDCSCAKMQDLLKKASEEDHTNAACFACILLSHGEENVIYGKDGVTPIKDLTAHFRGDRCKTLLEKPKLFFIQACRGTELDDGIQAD
Chain of Caspase-7 (P55210 207-303 limits assumed): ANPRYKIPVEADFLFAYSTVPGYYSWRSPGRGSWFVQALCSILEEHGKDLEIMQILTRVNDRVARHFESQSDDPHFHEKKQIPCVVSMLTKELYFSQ

Caspase-6 = biological target: T2, Caspase-6 (Homo sapiens, UniProt P55212); test: human caspase-6 inhibitors, dose response, biochemical, VEID-R110 fluorescence, cherry-pick (AID 720632)
T2 sequence (P55212 whole entry): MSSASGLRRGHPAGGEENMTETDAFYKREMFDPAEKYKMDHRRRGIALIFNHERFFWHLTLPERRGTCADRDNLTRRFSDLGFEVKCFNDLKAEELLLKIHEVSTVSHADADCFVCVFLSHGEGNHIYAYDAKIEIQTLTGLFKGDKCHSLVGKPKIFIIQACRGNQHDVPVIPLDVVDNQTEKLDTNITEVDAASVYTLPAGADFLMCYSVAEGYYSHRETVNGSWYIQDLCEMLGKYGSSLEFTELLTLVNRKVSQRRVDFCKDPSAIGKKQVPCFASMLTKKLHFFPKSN

Candida albicans [5] = test: fluconazole resistance reversal in C. albicans, dose response, CaCi-2 strain, Alamar Blue, dry powder, set 4 (AID 488943); assay type: functional, organism-based
Candida albicans [6] = test: C. albicans growth inhibition with fluconazole, dose response, antifungal resistance reversal project, CaCi-2 strain, Alamar Blue, dry powder, set 2 (AID 488930); assay type: functional, organism-based
Candida albicans [7] = test: growth inhibition of azole-resistant C. albicans, dose response, CaCi-8 strain, Alamar Blue, dry powder, set 2 (AID 488909); assay type: functional, organism-based
Candida albicans [8] = test: growth inhibition of resistant C. albicans, dose response, CaCi-8 strain, fluconazole, dry powder, set 4 (AID 488950); assay type: functional, organism-based
[9] = Counterscreen for activators of the function of SWI/SNF related, matrix associated, actin dependent regulator of chromatin, subfamily a, member 2 (SMARCA2, BRM): Luminescence-based cell-based high throughput dose response assay to identify non-selective compounds using the VP16 reporter assay.; assay type: functional
[10] = biological target: SWI/SNF-related matrix-associated actin-dependent regulator of chromatin subfamily A member 2 (Homo sapiens, UniProt P51531); test: Luminescence-based cell-based high throughput dose response assay to identify activators of the function of SWI/SNF related, matrix associated, actin dependent regulator of chromatin, subfamily a, member 2 (SMARCA2, BRM).; assay type: functional
[11] = biological target: T3, Latent membrane protein 1 (Human herpesvirus 4 (strain B95-8), UniProt P03230); test: TES1-eGFP NF-kB reporter inhibition versus Tet-On dsRED, dose response, selectivity assay for LMP1 NF-kB inhibitor project, imaging, HEK293T, dual-color eGFP/dsRED, cherry-picks (AID 588398); assay type: functional, cell-based
T3 sequence (P03230 whole entry): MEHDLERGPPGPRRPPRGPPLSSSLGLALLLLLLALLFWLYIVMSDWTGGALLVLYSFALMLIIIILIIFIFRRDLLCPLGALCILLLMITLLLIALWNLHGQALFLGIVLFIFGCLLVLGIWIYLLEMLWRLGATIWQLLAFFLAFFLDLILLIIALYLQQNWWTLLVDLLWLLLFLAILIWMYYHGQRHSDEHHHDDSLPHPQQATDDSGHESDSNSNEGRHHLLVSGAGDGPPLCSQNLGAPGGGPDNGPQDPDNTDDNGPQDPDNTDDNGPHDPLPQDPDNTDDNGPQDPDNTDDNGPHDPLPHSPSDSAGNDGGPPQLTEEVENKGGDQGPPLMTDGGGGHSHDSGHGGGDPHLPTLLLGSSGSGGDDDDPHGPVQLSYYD

[12] = Luminescence Cell-Based Dose Retest to Confirm Inhibitors of Cancer Stem Cells. [Related pubchem assays (depositor defined):AID2717, AID2721]; assay type: functional; conditions: Homo sapiens
[13] = cytotoxicity in HMLE control line with eGFP shRNA, dose response, counter-screen for HMLE_sh_ECad selective toxicity project, cell-based, HMLE_sh_eGFP, luminescence (AID 463074); assay type: functional, Homo sapiens;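 further: HMLE human mammary epithelial cells expressing control shRNA against eGFP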
[14] = biological target: ATP-dependent molecular chaperone HSP82 (Candida albicans (strain WO-1) (Yeast), UniProt C4YTQ8); test: loss of DOC-induced GRE-beta-galactosidase reporter signal, dose response, Hsp90 inhibitor project, S. cerevisiae, luminescence (AID 2400); assay type: functional, cell-based;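 further: beta-galactosidase luminescence from glucocorticoid response element reporter as proxy for Hsp90 function; inhibitor potency where signal loss means Hsp90 inhibition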
[15] = biological target: Peroxisome proliferator-activated receptor gamma/Nuclear receptor coactivator 3 (Homo sapiens, UniProt P37231); test: TR-FRET dose response biochemical High Throughput Screening assay for agonists of the steroid receptor coactivator 3 (SRC-3) recruitment by the peroxisome proliferator-activated receptor gamma (PPAR gamma): non-selective agonists. [Related pubchem assays: 1301 (Confirmation screen.), 1048 (Primary screen.)]; assay type: functional
[16] = NIH-3T3 fibroblast cytotoxicity, dose response, cytotoxicity control, cell-based, fluorescence, Alamar Blue, secondary assay (AID 2327); assay type: functional;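 further: NIH-3T3 mouse fibroblasts cultured with fluconazole at 8 µg/mL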
[17] = biological target: Peroxisome proliferator-activated receptor gamma/Nuclear receptor coactivator 1 (Homo sapiens, UniProt P37231); test: TR-FRET dose response biochemical High Throughput Screening assay for agonists of the steroid receptor coactivator 1 (SRC-1) recruitment by the peroxisome proliferator-activated receptor gamma (PPAR gamma): non-selective agonists. [Related pubchem assays (depositor defined):AID1300, AID1808, AID504735, AID631]; assay type: protein assay
[18] = biological target: Serine/threonine-protein phosphatase (Candida dubliniensis (strain CD36 / CBS 7987 / NCPF 3949 / NRRLY-17841) (Yeast), UniProt B9W6M3); test: calcineurin pathway inhibitors in yeast reporter, dose response, S. cerevisiae, CDRE-lacZ, luminescence, secondary (AID 2388); assay type: functional, cell-based;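 further: yeast reporter cells carrying a calcineurin-responsive lacZ construct stimulated with calcium chloride; luminescent beta-galactosidase reporter signal in whole cells rather than isolated phosphatase activity; potency for inhibition where a drop in reporter signal means calcineurin blockade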
[19] = biological target: Peroxisome proliferator-activated receptor gamma/Nuclear receptor corepressor 2 (Homo sapiens, UniProt P37231+Q9Y618); assay type: functional
fMet-Leu-Phe receptor = fMet-Leu-Phe receptor (Homo sapiens, UniProt P21462); test: FPR ligands, dose response (AID 519); assay type: functional
Chain of fMet-Leu-Phe receptor (P21462 whole entry): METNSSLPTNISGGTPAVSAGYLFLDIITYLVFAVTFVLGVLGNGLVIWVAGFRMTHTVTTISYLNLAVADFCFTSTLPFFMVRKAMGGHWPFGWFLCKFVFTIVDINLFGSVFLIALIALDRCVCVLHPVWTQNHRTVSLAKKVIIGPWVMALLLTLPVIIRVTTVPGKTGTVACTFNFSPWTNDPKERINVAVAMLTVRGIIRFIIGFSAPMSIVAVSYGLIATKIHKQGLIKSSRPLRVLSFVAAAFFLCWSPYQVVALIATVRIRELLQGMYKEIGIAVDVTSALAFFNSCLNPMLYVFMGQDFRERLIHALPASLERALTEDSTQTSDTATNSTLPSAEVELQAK

[20] = biological target: Peroxisome proliferator-activated receptor gamma/Nuclear receptor coactivator 2 (Homo sapiens, UniProt P37231); test: TR-FRET dose response biochemical High Throughput Screening assay for agonists of the steroid receptor coactivator 2 (SRC-2) recruitment by the peroxisome proliferator-activated receptor gamma (PPAR gamma): non-selective agonists. [Related pubchem assays: 1297, 1032 ]; assay type: functional
[21] = biological target: Photoreceptor-specific nuclear receptor (Homo sapiens, UniProt Q9Y5X4); assay type: functional;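 further: potency for compounds that break the NR2E3 corepressor complex and count as activators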
Chain of Photoreceptor-specific nuclear receptor (Q9Y5X4 whole entry): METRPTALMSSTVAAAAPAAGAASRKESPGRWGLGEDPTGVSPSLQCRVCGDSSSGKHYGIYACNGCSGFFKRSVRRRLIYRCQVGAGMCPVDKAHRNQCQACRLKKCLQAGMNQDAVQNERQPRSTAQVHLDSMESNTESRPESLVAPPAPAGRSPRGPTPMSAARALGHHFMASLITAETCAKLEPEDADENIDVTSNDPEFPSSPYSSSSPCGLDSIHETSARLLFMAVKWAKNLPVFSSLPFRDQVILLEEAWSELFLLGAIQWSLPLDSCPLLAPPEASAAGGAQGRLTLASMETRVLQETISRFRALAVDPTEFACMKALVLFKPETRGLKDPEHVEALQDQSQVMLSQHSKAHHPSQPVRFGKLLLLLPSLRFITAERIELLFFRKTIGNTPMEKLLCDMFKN

[22] = C. albicans growth with fluconazole, confirmation, fluorescence, retest (AID 2467); assay type: functional, cell-based
Cytochrome P450 3A4 = Cytochrome P450 3A4 (Homo sapiens, UniProt P08684);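 further: CYP3A4 tested as one member of a cytochrome P450 panel screen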
Chain of Cytochrome P450 3A4 (P08684 whole entry): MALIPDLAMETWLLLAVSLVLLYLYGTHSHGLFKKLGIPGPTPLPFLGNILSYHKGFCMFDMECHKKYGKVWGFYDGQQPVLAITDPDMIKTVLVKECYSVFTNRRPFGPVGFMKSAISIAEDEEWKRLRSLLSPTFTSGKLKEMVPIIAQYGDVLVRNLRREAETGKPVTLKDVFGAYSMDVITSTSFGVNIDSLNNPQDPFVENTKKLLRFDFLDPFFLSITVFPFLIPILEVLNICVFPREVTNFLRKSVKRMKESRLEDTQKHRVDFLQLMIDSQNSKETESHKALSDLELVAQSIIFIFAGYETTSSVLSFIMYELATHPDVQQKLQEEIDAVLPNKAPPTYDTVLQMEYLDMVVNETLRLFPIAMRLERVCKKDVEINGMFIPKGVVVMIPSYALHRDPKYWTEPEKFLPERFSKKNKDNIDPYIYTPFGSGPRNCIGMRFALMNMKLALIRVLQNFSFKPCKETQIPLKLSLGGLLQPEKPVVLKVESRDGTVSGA

Cytochrome P450 2C19 = Cytochrome P450 2C19 (Homo sapiens, UniProt P33261); test: Cytochrome panel assay with activity outcomes. Panel member name: p450-cyp2c19 Compounds with AC50 equal or less than 10 uM are considered active; assay type: functional; conditions: read-out: AC50
HeLa = test: HeLa cell cytotoxicity, dose response, cytotoxicity control for MITF activator project, CellTiter-Glo luminescence, cherry-pick samples (AID 540259); assay type: functional, cell-based; conditions: Homo sapiens
Phospholipase D2 = Phospholipase D2 (Homo sapiens, UniProt O14939); test: PLD2 inhibitor potency in cells, dose response (AID 602147); assay type: functional;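 further: cellular assay in HEK293 cells overexpressing GFP-tagged PLD2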
Chain of Phospholipase D2 (O14939 whole entry): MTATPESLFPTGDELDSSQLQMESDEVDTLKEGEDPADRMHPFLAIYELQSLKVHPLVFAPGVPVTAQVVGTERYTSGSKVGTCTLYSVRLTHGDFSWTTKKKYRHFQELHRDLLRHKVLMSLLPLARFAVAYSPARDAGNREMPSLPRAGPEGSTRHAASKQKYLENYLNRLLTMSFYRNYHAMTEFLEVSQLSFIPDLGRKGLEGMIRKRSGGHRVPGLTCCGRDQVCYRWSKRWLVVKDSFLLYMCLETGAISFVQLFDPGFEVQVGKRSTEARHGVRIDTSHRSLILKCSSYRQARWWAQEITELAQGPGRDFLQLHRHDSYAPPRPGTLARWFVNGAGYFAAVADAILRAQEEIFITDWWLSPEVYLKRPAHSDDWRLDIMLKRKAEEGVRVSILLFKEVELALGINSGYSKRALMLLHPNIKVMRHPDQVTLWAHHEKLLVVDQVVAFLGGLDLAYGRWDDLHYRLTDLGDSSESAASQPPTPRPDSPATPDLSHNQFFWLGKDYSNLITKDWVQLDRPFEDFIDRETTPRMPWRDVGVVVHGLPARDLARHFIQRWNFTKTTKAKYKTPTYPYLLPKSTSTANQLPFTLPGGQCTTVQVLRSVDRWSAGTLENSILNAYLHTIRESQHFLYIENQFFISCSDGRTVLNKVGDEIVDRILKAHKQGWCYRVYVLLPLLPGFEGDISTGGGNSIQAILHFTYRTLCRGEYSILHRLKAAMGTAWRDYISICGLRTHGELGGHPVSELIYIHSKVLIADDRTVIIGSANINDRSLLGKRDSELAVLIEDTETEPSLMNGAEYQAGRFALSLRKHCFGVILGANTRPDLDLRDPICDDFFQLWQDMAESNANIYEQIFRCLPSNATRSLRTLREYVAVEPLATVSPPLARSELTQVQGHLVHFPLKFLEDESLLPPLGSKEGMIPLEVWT

Phospholipase D1 = biological target: T4, Phospholipase D1 (Homo sapiens, UniProt Q13393); test: PLD1 inhibitor potency in cells, dose response (AID 602151); assay type: functional;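 further: cellular PLD1 assay in Calu-1 cells stimulated with PMA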
T4 sequence (Q13393 whole entry): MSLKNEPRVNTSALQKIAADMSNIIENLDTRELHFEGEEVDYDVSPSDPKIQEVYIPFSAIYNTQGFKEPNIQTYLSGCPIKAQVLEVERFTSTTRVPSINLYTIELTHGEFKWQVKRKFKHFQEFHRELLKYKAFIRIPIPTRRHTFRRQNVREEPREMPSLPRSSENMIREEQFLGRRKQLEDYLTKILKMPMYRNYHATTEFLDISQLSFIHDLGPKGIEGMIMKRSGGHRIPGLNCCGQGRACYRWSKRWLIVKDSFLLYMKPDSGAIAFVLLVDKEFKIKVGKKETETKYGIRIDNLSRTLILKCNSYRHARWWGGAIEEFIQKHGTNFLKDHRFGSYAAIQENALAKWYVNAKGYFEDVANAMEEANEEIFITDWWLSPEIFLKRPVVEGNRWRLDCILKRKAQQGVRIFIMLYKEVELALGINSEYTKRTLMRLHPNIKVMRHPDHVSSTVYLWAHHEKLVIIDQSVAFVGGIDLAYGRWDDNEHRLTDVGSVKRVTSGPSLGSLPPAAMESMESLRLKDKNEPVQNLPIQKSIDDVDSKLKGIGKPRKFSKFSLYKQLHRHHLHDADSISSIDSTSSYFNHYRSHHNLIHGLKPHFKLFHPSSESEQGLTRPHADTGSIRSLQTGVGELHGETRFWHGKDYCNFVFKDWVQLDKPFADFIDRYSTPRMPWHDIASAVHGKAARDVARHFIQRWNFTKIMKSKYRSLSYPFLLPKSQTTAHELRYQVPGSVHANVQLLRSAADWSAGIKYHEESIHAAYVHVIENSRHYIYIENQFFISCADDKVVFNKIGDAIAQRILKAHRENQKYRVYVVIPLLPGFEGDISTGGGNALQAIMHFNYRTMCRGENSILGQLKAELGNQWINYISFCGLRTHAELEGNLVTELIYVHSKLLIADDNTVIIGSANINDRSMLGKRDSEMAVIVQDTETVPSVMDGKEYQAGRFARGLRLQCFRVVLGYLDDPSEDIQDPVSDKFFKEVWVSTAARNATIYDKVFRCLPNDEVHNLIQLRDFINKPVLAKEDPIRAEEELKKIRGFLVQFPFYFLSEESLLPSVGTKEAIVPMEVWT

[23] = biological target: Beta-2 adrenergic receptor (Homo sapiens, UniProt P07550); test: beta2AR agonists driving receptor internalization, dose response, cell-based, FAP fluorogen, flow cytometry, cherry pick 1 (AID 588763); assay type: functional
Chain of Beta-2 adrenergic receptor (P07550 whole entry): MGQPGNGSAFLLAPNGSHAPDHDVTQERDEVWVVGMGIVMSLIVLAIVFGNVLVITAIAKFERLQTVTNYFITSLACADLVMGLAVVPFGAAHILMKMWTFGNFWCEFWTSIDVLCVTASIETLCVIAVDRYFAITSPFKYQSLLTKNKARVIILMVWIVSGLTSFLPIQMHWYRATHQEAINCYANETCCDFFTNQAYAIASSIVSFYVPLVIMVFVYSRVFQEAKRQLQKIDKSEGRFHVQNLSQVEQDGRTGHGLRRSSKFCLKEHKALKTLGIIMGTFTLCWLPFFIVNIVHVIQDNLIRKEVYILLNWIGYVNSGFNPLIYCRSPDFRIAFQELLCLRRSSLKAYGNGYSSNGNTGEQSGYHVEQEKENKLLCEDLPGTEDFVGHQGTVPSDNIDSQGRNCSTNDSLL

Cc1ccccc1NC(=O)Nc1nc2ccc(S(C)(=O)=O)cc2s1
IC50 [1]: > 67.5 µM (inactive) | IC50 (HEK293): > 67.5 µM (inactive)

Brc1ccc(CNc2nccc(-c3ccc4c(c3)OCO4)n2)cc1Br
AC50 [2]: 0.0049 µM (active)

CN1CCN2c3ccccc3Cc3ccccc3C2C1 (stereo not drawn) [MIANSERIN HYDROCHLORIDE]
AC50 [3]: 35.5 µM (inconclusive) | CC50 [4]: > 40 µM (active)

Cc1oc2c(cc(NS(=O)(=O)c3ccc(C(C)C)cc3)c3ccccc32)c1C(=O)O
AC50 (Keap1/Nrf2): 21.7 µM (active) | AC50 (Caspase-7): > 70 µM (inactive) | AC50 (Caspase-6): 4 µM (active)

O=C(c1ccc(Cl)cn1)N1CCN(c2ccnc3cc(Cl)ccc23)CC1
AC50 (Candida albicans [5]): 2.47 µM (active) | AC50 (Candida albicans [6]): 0.316 µM (active) | AC50 (Candida albicans [7]): < 0.195 µM (active) | AC50 (Candida albicans [8]): 3.17 µM (active)

C=CC(=O)OCCOCCOCCOCCOC(=O)C=C
EC50 [9]: > 91.2 µM (inactive) | EC50 [10]: > 91.2 µM (inactive) | AC50 [11]: 25 µM (active) | AC50 [12]: 19.2 µM (active) | AC50 [13]: 92 µM (active)

COc1cccc(C2C(C(=O)c3cc4ccccc4o3)=C(O)C(=O)N2c2cc(C)on2)c1OC (stereo not drawn)
EC50 [14]: 17.2 µM (active) | EC50 [15]: > 79.4 µM (not active) | EC50 [16]: > 150 µM (inactive) | EC50 [17]: 35.9 µM (inactive) | EC50 [18]: > 180 µM (inactive) | IC50 [19]: 4.97 µM (active) | Ki (fMet-Leu-Phe receptor): > 66.7 µM (inactive) | EC50 [20]: 9.84 µM (active) | IC50 [21]: > 39.8 µM (not active) | EC50 [22]: 0.61 µM (active) | AC50 (Cytochrome P450 3A4): 28.2 µM (inconclusive) | AC50 (Cytochrome P450 2C19): 15.8 µM (inconclusive)

c1ccc(Cc2cc(-c3ccccc3)on2)cc1
AC50 (HeLa): 253 µM (active)

C[C@@H](CN1CCC(n2c(=O)[nH]c3ccc(F)cc32)CC1)NC(=O)c1ccc(Cl)cc1
IC50 (Phospholipase D2): 0.434 µM (active) | IC50 (Phospholipase D1): 0.004 µM (active)

O=C(Cn1nc(-c2ccccc2)ccc1=O)Nc1ccc(NC(=O)c2ccccn2)cc1
EC50 [23]: 0.00816 µM (active)
